{"source": "patent US11357748B2", "about": "“Methods for treating mendelian disorders of the epigenetic machinery” (THE JOHNS HOPKINS UNIVERSITY, priority 2014, dated 2022)", "key": {"[1]": {"test_system": "H3K4me3 in the dentate gyrus GCL", "experiment": "Immunofluorescence of H3K4me3 in the dentate gyrus GCL after oral AR-42", "format": "in vivo, mouse", "details": "25 mg/kg/day oral, two weeks, from 20 weeks of age; vs untreated; FIG. 24A, 24B", "text": "Kmt2d^+/βGeo mice, also named Mll2Gt^(RRt024) Byg, were acquired from Bay Genomics (University of California). All experimental mice were on a mixed C57BL/6J and 129/SvEv background. Expected Mendelian ratios were observed when heterozygous animals were bred to wild-type. In heterozygous crosses, however, there was uniform embryonic lethality of homozygotes by ED 12, the earliest developmental stage assayed. For treatment with AR-42, mice were orally gavaged daily with drug (Selleck Chemicals, Houston, Tex.) solubilized in vehicle (0.5% methylcellulose, 0.1% Tween-80, water) or with vehicle alone. Drug delivery information was kindly provided by Drs. […] For quantification of DCX positive cells, doses of 0, 5, 10 and 25 mg/kg/day were used. […] Maxillary protrusion was evaluated by ten investigators blinded to genotype and they were asked to rate maxillary protrusion on radiographs as either large (2) or small (1). […]\nZ-stack images of slides were taken at either 10× using Zeiss Axiovert 200 with 510-Meta confocal module (Carl Zeiss, Jena, GER) or 25× using Zeiss AxioExaminer with 710NLO-Meta multiphoton (Carl Zeiss, Jena, GER). From 10× pictures, the GCL was highlighted and fluorescent intensities for both DAPI and H3K4me3 were measured at the midpoint of the entire z-stack (Zen software, Carl Zeiss, Jena, GER) with the value for Kmt2d^+/+ animals set equal to one. […]"}, "[2]": {"test_system": "DCX positive cells in the GCL (neurogenesis)", "experiment": "Doublecortin (DCX) expression in the GCL (neurogenesis) after oral AR-42", "format": "in vivo, mouse", "text": "Kmt2d^+/βGeo mice, also named Mll2Gt^(RRt024) Byg, were acquired from Bay Genomics (University of California). All experimental mice were on a mixed C57BL/6J and 129/SvEv background. Expected Mendelian ratios were observed when heterozygous animals were bred to wild-type. In heterozygous crosses, however, there was uniform embryonic lethality of homozygotes by ED 12, the earliest developmental stage assayed. For treatment with AR-42, mice were orally gavaged daily with drug (Selleck Chemicals, Houston, Tex.) solubilized in vehicle (0.5% methylcellulose, 0.1% Tween-80, water) or with vehicle alone. Drug delivery information was kindly provided by Drs. Chen and Kulp from Ohio State University (Huang et al. (2011) Mol. Pharmacol. 79:197-20619). Drug was administered for 14 days and mice were sacrificed on day 15. Morris water maze testing was initiated at day 7 and a dose of 10 mg/kg/day was used for these studies. For quantification of DCX positive cells, doses of 0, 5, 10 and 25 mg/kg/day were used. Genotyping was performed using primers B-GeoF-([…]; SEQ ID NO: 1) and B-GeoR-([…]; SEQ ID NO: 2) that are specific for the targeted allele and TcrdF-([…]; SEQ ID NO: 3) and TcrdR-([…]; SEQ ID NO: 4) that control for sufficient DNA concentration. Real-time PCR using the same primers allows discrimination between the heterozygous and homozygous state for the targeted allele. Maxillary protrusion was evaluated by ten investigators blinded to genotype and they were asked to rate maxillary protrusion on radiographs as either large (2) or small (1). […] All experiments were performed using mouse protocols approved by the Animal Care and Use Committee of Johns Hopkins University School of Medicine. The mouse protocols used for this study are in accordance with the guidelines used by the NIH for mouse care and handling.\nEvery 6th brain section was selected and then blocked with 5% Bovine Serum Albumin (BSA) at room temperature followed by incubation with primary antibodies overnight at 4° C. Secondary antibodies were then applied for 1 hour at room temperature, after which sections were mounted onto microscope slides with Vectamount with DAPI (Vector Laboratories, Burlingame, Calif.). Primary antibodies included Doublecortin (DCX) (SC-8066, Santa Cruz Biotechnology, Dallas, Tex., 1:200 goat), trimethylated H3K4 (9727L, Cell Signaling Technology, Beverly, Mass., 1:500 rabbit), and Kmt2d H-300 (SC-292359, Santa Cruz Biotechnology, Dallas, Tex., 1:500 rabbit). Non-specific binding was not observed when sections were sequentially exposed to serum (or IgG when appropriate) from the same species as the primary antibody for each experiment (i.e. rabbit for KMT2D and H3K4me3 and goat for doublecortin), followed by the secondary antibody used for KMT2D and H3K4me3 (anti-rabbit) or doublecortin (anti-goat, FIG. 29).\nThe area of both the GCL and DCX+ cells was measured using the NS elements 2.0 software (Nikon, Tokyo, JPN). Normalized DCX area was calculated by measuring the DCX+ area of the GCL and setting the baseline (Kmt2d^+/+) fraction to 1. A Student t-test with significance value set at P<0.05 was used for comparison of DCX+ area referenced to GCL area between genotypes and treatment arms."}}, "note": "Entries after “also recorded” stand apart in the source; their conditions may differ."}
{"smiles": "CC(C)[C@H](C(=O)Nc1ccc(C(=O)NO)cc1)c1ccccc1", "note": "[AR-42, (S)—N-hydroxy-4-(3-methyl-2-phenylbutanamido)benzamide]", "values": [{"measurement": "H3K4me3 in the GCL", "setting": "[1]", "value": "increased H3K4 trimethylation"}, {"measurement": "DCX expression in the GCL", "setting": "[2]; 10 mg/kg/day, older (5-6 months) Kmt2d+/βGeo mice, FIG. 24D", "value": "improved"}, {"measurement": "difference in normalized DCX expression between mutant and wild-type animals", "setting": "[2]; 10 mg/kg/day, one to two month old mice", "value": "no difference between mutant and wild-type animals"}, {"measurement": "DCX expression in the GCL", "setting": "[2]; 25 mg/kg/day, Kmt2d+/+ animals, FIG. 24C", "value": "reduced DCX expression"}, {"measurement": "DCX expression in the GCL", "setting": "[2]; 25 mg/kg/day, Kmt2d+/βGeo mice, FIG. 24C", "value": "did not improve DCX expression"}, {"measurement": "DCX expression in the GCL", "setting": "[2]; 25 mg/kg/day, young (1-2 month) and old (5-6 month) Kmt2d+/+ and Kmt2d+/βGeo mice", "value": "decreased DCX expression"}, {"measurement": "DCX expression in the GCL", "setting": "[2]; 5 and 10 mg/kg/day, Kmt2d+/+ (preservation) or Kmt2d+/βGeo (restoration), both age groups", "value": "preservation or restoration of DCX expression"}, {"measurement": "postnatal neurogenesis in the granule cell layer of the dentate gyrus (overall statement)", "setting": "[2]; mouse model of KS, ages 1-2 months and 5-6 months", "value": "beneficial effect; also recorded: rescued postnatal neurogenesis"}, {"measurement": "neurogenesis (normalized DCX expression)", "setting": "[2]; one to two month old Kmt2d+/βGeo mice, 0-10 mg/kg/day, FIG. 25C, 25D", "value": "dose-dependent increase in neurogenesis"}]}
